# Test results reported in patent US12427192B2, “Water soluble adjuvant and composition containing same” (Sumitomo Pharma Co., Ltd., priority 2019, dated 2025).
# Key:
# [1] = test system: HLA-A*02:01 transgenic mouse; assay: Test 12: in vivo adjuvant activity, cocktail vaccine g (emulsified composition 2), IFNγ ELISPOT; settings: added to cocktail vaccine g (emulsified composition 2); 0.04 nmol or 0.4 nmol per body, twice; FIG. 12 and 13
# Experimental: (§1) Evaluation of In Vivo Adjuvant Activity in HLA-A*02:01 Transgenic Mouse
# The in vivo adjuvant activity of the compound of Example 1 was evaluated in the following procedure. To a cocktail vaccine (emulsified composition 2) comprising Compound of formula 4 prepared in Reference example 8 and Peptide SEQ ID No. 3 prepared in Reference example 3 (hereinafter, referred to as “cocktail vaccine g”) was added the compound prepared in Example 1 to prepare a vaccine. The vaccine was administered to a HLA-A*02:01 transgenic mouse, and the adjuvant activity of the vaccine was evaluated by the method of testing antigen-specific CTL induction.
# For example, the above emulsified composition 2 was prepared as follows. 95.8% (w/w) of medium-chain triglyceride (MYGLYOL 812), 3% (w/w) of PEG-30 dipolyhydroxy stearate, and 1.2% (w/w) of polysorbate 80 were mixed to prepare an oil-phase mixture. The amount of the preparation was adjusted as appropriate. Compound of formula 4 and Peptide SEQ ID No. 3 were mixed with pH 2.5 buffer (10 mM tartaric acid, 10% trehalose) to adjust each concentration to 3 mg/mL and 2.25 mg/mL, respectively. The prepared peptide dilution was mixed with an equal volume of the oil-phase mixture to give an emulsified product, cocktail vaccine g. […] Then, after removal of the supernatant from the wells, stained spots on the ELISPOT plate were counted.
# [2] = test system: HLA-A*02:01 transgenic mouse; assay: Test 14: in vivo adjuvant activity, cocktail vaccine i (oily suspension formulation), IFNγ ELISPOT; settings: added to cocktail vaccine i (oily suspension formulation); 0.04 nmol or 0.4 nmol per body, twice; FIG. 15 and 16
# Experimental: as §1
# The in vivo adjuvant activity of the compound of Example 1 was evaluated in the following procedure. To a cocktail vaccine (oily suspension formulation) comprising Compound of formula 4 prepared in Reference example 8 and Peptide SEQ ID No. 3 prepared in Reference example 3 (hereinafter, referred to as “cocktail vaccine i”) was added the compound prepared in Example 1 to prepare a vaccine. The vaccine was administered to a HLA-A*02:01 transgenic mouse, and the adjuvant activity of the vaccine was evaluated by the method of testing antigen-specific CTL induction.
# For example, the above oily suspension formulation was prepared as follows. […]
# Cocktail vaccine i was injected to mice intradermally at the tail base area in an amount for administering 300 μg of Compound of formula 4 per body and 225 μg of Peptide SEQ ID No. 3 per body. […] Then, after removal of the supernatant from the wells, stained spots on the ELISPOT plate were counted.
structure (smiles),measurement,setting,value
"CCCCCNc1nc(N)nc(C)c1Cc1ccc(CN(C)CCOCCOCCOCCOCCO)cc1OC [Example 1, 1-(4-{[2-amino-4-methyl-6-(pentylamino)pyrimidin-5-yl]methyl}-3-methoxyphenyl)-2-methyl-5,8,11,14-tetraoxa-2-azahexadecan-16-ol·trifluoroacetate]",CTL counts responsive to Peptide SEQ ID No. 1 or SEQ ID No. 4 compared with adding no compound,[1],more
same,CTL counts responsive to Peptide SEQ ID No. 1 or SEQ ID No. 4 compared with adding no compound,[2],more
